According to patent US11008295B2, “Compounds having antiinfective, antitumoral and antifungal activity” (priority 2017, dated 2021):

Tests used:
[1] = system: C. parapsilopsis; conditions: C. parapsilosis, clinical strain; cited from earlier work
[2] = system: C. Krusei; conditions: clinical strain; cited from earlier work
[3] = system: C. tropicalis; conditions: clinical strain; cited from earlier work
[4] = system: A. terreus; conditions: clinical strain; cited from earlier work
[5] = system: A. flavus; conditions: clinical strain; cited from earlier work
[6] = system: A. niger; conditions: clinical strain; cited from earlier work
[7] = system: A. fumigatus; conditions: clinical strain; cited from earlier work
[8] = system: C. lusitaniae; conditions: clinical strain; cited from earlier work
[9] = system: C. glabrata; conditions: clinical strain; cited from earlier work
[10] = system: C. guilliermondii; conditions: C. guillermondii, clinical strain; cited from earlier work
[11] = system: C. albicans; conditions: clinical strain; cited from earlier work
[12] = system: N. carnea; assay: Kirby-Bauer disk diffusion susceptibility test; assay type: cell-based, Nocardia carnea
Description: (§1) Bacterial strains, from clinical origin, were supplied by the National Center for Microbiology, Institute of Health Carlos III (Majadahonda, Madrid). They are detailed in Table I.
(§2) Bacterial cells suspension in sterile saline was prepared from a culture of 24-72 h, depending on bacterial species, in Mueller-Hinton Agar with 5% sheep blood. Each suspension was adjusted to a fixed size inoculum of 1-5×10^8 CFU/ml with a spectrophotometer (Ferraro, M J National Committee for Clinical Laboratory Standards. 2000).
(§3) Kirby-Bauer disk diffusion susceptibility test protocol was utilized to determine the sensitivity or resistance of pathogenic bacteria against the compounds and others antibiotics. The absence of growth around the disks is an indirect measure of the ability of this compound to inhibit an organism (Kirby, W. et al., Antibiotics Annu. 1956-1957:892). After 18 to 72 hours of incubation at […], with or without CO2, under aerobic or anaerobic conditions, depending on the bacterial species, halo of growth inhibition were obtained and evaluated.
(§4) Interpretation of susceptibility and resistance was based on the presence or absence of a zone of inhibition surrounding the disk. Kirby-Bauer disk diffusion susceptibility test is a common method which uses antibiotic-impregnated wafers to test whether bacteria are affected by antibiotics. The size of the zone of inhibition depends on how effective the antibiotic is at stopping the growth of the bacterium. A stronger antibiotic will create a larger zone, because a lower concentration of the antibiotic is enough to stop growth.

[13] = system: E. coli; assay: Kirby-Bauer disk diffusion susceptibility test; assay type: cell-based
Description: as §1, §2, §3, §4

[14] = system: M. fortuitum; assay: Kirby-Bauer disk diffusion susceptibility test; assay type: cell-based; conditions: M. fortuitum strain 1080, isolation year 2011
Description: as §1, §2, §3, §4

[15] = system: A. baumannii; assay: Kirby-Bauer disk diffusion susceptibility test; assay type: cell-based
Description: as §1, §2, §3, §4

[16] = system: M. chelonae; assay: Kirby-Bauer disk diffusion susceptibility test; assay type: cell-based; conditions: M. chelonae strain 870, isolation year 2011
Description: as §1, §2, §3, §4

[17] = system: N. cyriacigeorgica; assay: Kirby-Bauer disk diffusion susceptibility test; assay type: cell-based
Description: as §1, §2, §3, §4

[18] = system: M. abscessus; assay: Kirby-Bauer disk diffusion susceptibility test; assay type: cell-based, Mycobacterium abscessus; conditions: M. abscessus strain 690, isolation year 2012
Description: as §1, §2, §3, §4

[19] = system: T. pulmonis; assay: Kirby-Bauer disk diffusion susceptibility test; assay type: cell-based, Tsukamurella pulmonis
Description: as §1, §2, §3, §4

[20] = system: P. aeruginosa; assay: Kirby-Bauer disk diffusion susceptibility test; assay type: cell-based; conditions: P. aeruginosa strain 96, isolation year 2014
Description: as §1, §2, §3, §4

[21] = system: B. cereus; assay: Kirby-Bauer disk diffusion susceptibility test; assay type: cell-based, Bacillus cereus
Description: as §1, §2, §3, §4

[22] = system: E. faecalis; assay: Kirby-Bauer disk diffusion susceptibility test; assay type: cell-based
Description: as §1, §2, §3, §4

[23] = system: E. faecium; assay: Kirby-Bauer disk diffusion susceptibility test; assay type: cell-based
Description: as §1, §2, §3, §4

[24] = N. carnea strain 40, isolation year 2011
[25] = N. carnea strain 769, isolation year 2009
[26] = E. coli strain 29, isolation year 2012
[27] = E. coli strain 305, isolation year 2008
[28] = N cyriacigeorgica strain 199, isolation year 2005
[29] = N. cyriacigeorgica strain 30, isolation year 2005
[30] = T. pulmonis strain 40, isolation year 2015
[31] = T. pulmonis strain 1991, isolation year 2009
Further: key: I = intermediate activity; S = susceptibility; R = Resistance.

| Compound | Characteristics of the strains: susceptibility to the antifungal [1] | Characteristics of the strains: susceptibility to the antifungal [2] | Characteristics of the strains: susceptibility to the antifungal [3] | Characteristics of the strains: susceptibility to the antifungal [4] | Characteristics of the strains: susceptibility to the antifungal [5] | Characteristics of the strains: susceptibility to the antifungal [6] | Characteristics of the strains: susceptibility to the antifungal [7] | Characteristics of the strains: susceptibility to the antifungal [8] | Characteristics of the strains: susceptibility to the antifungal [9] | Characteristics of the strains: susceptibility to the antifungal [10] | Characteristics of the strains: susceptibility to the antifungal [11] | Sensitivity or resistance of the strain to the antibiotic [14] | Sensitivity or resistance of the strain to the antibiotic [16] | Sensitivity or resistance of the strain to the antibiotic [18] | further results |
| --- | --- | --- | --- | --- | --- | --- | --- | --- | --- | --- | --- | --- | --- | --- | --- |
| C[C@@H]1[C@H](O)[C@@H](C)/C=C/C=C/C=C/C=C/C=C/C=C/C=C/[C@H](O[C@@H]2O[C@H](C)[C@@H](O)[C@H](N)[C@@H]2O)C[C@@H]2O[C@](O)(C[C@@H](O)C[C@@H](O)[C@H](O)CC[C@@H](O)C[C@@H](O)CC(=O)O[C@H]1C)C[C@H](O)[C@H]2C(=O)O [Amphotericin B] | S | I | S | I | I | S | S | I | S | R | I |  |  |  |  |
| Clc1ccccc1C(c1ccccc1)(c1ccccc1)n1ccnc1 [Clotrimazole] | S | S | S | S | S | S | S | S | S | R | S |  |  |  |  |
| OC(Cn1cncn1)(Cn1cncn1)c1ccc(F)cc1F [Fluconazole] | S | S | S | R | R | R | R | S | S | R | S |  |  |  |  |
| C[C@@H](O)[C@H]1C(=O)N2C(C(=O)O)=C(SCCN=CN)C[C@H]12 [IMP, Imipenem] |  |  |  |  |  |  |  |  |  |  |  | R | R | R | Sensitivity or resistance of the strain to the antibiotic [12, 24]: R; Sensitivity or resistance of the strain to the antibiotic [12, 25]: S; Sensitivity or resistance of the strain to the antibiotic [13, 26]: S; Sensitivity or resistance of the strain to the antibiotic [13, 27]: S; Sensitivity or resistance of the strain to the antibiotic ([15]; A. baumannii strain 300, isolation year 2001): R; Sensitivity or resistance of the strain to the antibiotic ([15]; A. baumannii strain 1301, isolation year 2009): S; Sensitivity or resistance of the strain to the antibiotic [17, 28]: R; Sensitivity or resistance of the strain to the antibiotic [17, 29]: S; Sensitivity or resistance of the strain to the antibiotic [19, 30]: S; Sensitivity or resistance of the strain to the antibiotic [19, 31]: S |
| CC(=O)N1CCN(c2ccc(OCC3COC(Cn4ccnc4)(c4ccc(Cl)cc4Cl)O3)cc2)CC1 (stereo not drawn) [Ketoconazole] | S | S | S | S | S | S | S | S | S | R | S |  |  |  |  |
| CC(=O)NC[C@H]1CN(c2ccc(N3CCOCC3)c(F)c2)C(=O)O1 [LIN, Linezolid] |  |  |  |  |  |  |  |  |  |  |  | R | R | S | Sensitivity or resistance of the strain to the antibiotic [12, 24]: S; Sensitivity or resistance of the strain to the antibiotic [12, 25]: S; Sensitivity or resistance of the strain to the antibiotic [20]: S; Sensitivity or resistance of the strain to the antibiotic [17, 28]: S; Sensitivity or resistance of the strain to the antibiotic [17, 29]: S; Sensitivity or resistance of the strain to the antibiotic [19, 30]: R; Sensitivity or resistance of the strain to the antibiotic [19, 31]: S |
| Penicillin |  |  |  |  |  |  |  |  |  |  |  | R | R | R | Sensitivity or resistance of the strain to the antibiotic ([21]; B. cereus strain 25, isolation year 2014): S; Sensitivity or resistance of the strain to the antibiotic ([21]; B. cereus strain 182, isolation year 2013): S; Sensitivity or resistance of the strain to the antibiotic [13, 26]: R; Sensitivity or resistance of the strain to the antibiotic [13, 27]: R; Sensitivity or resistance of the strain to the antibiotic ([22]; E. faecalis strain 52, isolation year 2006): R; Sensitivity or resistance of the strain to the antibiotic ([22]; E. faecalis strain 1052, isolation year 2008): R; Sensitivity or resistance of the strain to the antibiotic ([23]; E. faecium strain 26, isolation year 2012): R; Sensitivity or resistance of the strain to the antibiotic ([23]; E. faecium strain 209, isolation year 2015): R |
